Data from publication PMC9820345, “Metal Complexes of a 5-Nitro-8-Hydroxyquinoline-Proline Hybrid with Enhanced Water Solubility Targeting Multidrug Resistant Cancer Cells” (International Journal of Molecular Sciences, 2022).
Where two headings read alike, the source gives them in different places.

How the values were obtained:
OATP1B1 = target: T1, OATP1B1 (Homo sapiens, UniProt Q9Y6L6); assay: OATP uptake assay, OATP1B1; format: cell-based; details: reference inhibitor; experiments not documented
T1 construct: expressed in transfected cells; host or cells: A431 epidermoid carcinoma cells
T1 sequence (Q9Y6L6 1-691): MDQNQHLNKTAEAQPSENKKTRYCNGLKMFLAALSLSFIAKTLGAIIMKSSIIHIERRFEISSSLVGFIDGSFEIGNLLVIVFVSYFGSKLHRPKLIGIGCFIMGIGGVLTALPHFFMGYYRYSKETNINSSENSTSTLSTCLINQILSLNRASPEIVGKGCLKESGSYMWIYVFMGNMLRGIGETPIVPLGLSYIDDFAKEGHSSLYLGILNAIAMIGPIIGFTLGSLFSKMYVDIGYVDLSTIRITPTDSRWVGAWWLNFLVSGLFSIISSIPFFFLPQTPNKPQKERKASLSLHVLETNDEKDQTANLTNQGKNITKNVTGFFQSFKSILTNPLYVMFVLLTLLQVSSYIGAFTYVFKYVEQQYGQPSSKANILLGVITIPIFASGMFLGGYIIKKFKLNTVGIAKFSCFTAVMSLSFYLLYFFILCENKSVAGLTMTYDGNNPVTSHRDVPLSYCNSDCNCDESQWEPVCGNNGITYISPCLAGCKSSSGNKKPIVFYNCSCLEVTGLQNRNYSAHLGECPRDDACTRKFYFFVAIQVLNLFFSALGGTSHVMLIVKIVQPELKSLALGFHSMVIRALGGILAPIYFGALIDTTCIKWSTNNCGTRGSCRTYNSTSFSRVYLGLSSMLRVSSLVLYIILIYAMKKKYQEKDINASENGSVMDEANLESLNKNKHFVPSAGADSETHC
Description: (§1) Cell lines: A431 cells overexpressing OATP1B1 or OATP2B1, and their mock transfected controls were generated and characterized previously. The cell lines were cultured in DMEM (Gibco, Thermofisher Scientific, Waltham, MA, USA), supplemented with 10% fetal bovine serum, 2 mM L-glutamine, 100 μg/mL streptomycin, and 100 units/mL penicillin at 37 °C and 5% CO2.
(§2) OATP uptake assay: Prior to the experiment, A431 cells (8 × 10^4/well) were seeded on 96-well plates in 200 μL cell culture medium. After 16–24 h, the cells were washed with 200 μL PBS, three times and pre-incubated with 20–200 μM HQNO2-L-Pro, or buffer without HQNO2-L-Pro for 5 min at 37 °C in 50 μL HBSS (Hank’s Balanced Salt Solution, pH 7.4; OATP1B1) or uptake buffer (pH 5.5; OATP2B1 [63]). The reaction was started by the addition of disulfopyrene (6,8-dihydroxy-1,3-pyrenedisulfonic acid disodium salt, Sigma, Darmstadt, Germany) at a final concentration of 10 μM (OATP1B1) or pyranine (8-hydroxypyrene-1,3-pyrenetrisulfonic acid trisodium salt, Sigma, Darmstadt, Germany) at a final concentration of 20 μM (OATP2B1), and the cells were further incubated at 37 °C for 10 min (OATP1B1) or 15 min (OATP2B1). The reaction was stopped by removing the supernatant after which the cells were washed three times with ice-cold PBS. Fluorescence (in 200 μL PBS) was determined using an Enspire plate reader (PerkinElmer, Waltham, MA, USA) with excitation/emission wavelengths of 460/510 nm. OATP-dependent transport was calculated by subtracting fluorescence measured in mock transfected cells. Transport activity was calculated based on the fluorescence signal in the absence (100%) of HQNO2-L-Pro. Experiments were repeated in at least three biological replicates.

OATP2B1 = target: T2, OATP2B1 (Homo sapiens, UniProt O94956); assay: OATP uptake assay, OATP2B1; format: cell-based; details: reference inhibitor; experiments not documented
T2 construct: expressed in transfected cells; host or cells: A431 epidermoid carcinoma cells
T2 sequence (O94956 1-709): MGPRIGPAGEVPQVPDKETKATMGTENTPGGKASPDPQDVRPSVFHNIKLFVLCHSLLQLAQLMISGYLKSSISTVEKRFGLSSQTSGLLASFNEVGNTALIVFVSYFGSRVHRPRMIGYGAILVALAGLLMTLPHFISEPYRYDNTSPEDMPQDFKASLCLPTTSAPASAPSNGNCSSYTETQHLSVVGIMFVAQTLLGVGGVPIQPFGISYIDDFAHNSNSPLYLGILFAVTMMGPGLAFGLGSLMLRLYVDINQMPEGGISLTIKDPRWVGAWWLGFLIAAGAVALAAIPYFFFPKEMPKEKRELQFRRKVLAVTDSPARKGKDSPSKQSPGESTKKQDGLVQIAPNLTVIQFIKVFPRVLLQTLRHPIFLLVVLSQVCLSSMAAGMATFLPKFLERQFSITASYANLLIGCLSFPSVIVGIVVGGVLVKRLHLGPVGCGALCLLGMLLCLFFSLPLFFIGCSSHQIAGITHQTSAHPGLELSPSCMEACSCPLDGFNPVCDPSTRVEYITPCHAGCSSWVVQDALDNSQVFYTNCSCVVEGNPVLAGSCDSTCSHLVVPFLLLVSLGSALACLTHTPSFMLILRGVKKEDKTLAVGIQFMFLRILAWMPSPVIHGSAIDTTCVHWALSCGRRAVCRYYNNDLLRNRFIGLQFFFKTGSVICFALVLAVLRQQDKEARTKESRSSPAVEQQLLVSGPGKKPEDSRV
Description: as §1, §2

MES-SA/Dx5 = assay: In vitro cytotoxicity, MES-SA/Dx5 cells (fluorescent protein readout); format: cell-based, human; details: Homo sapiens, MES-SA/Dx5; 144 h exposure
Source text: (§3) Cell lines: all cell culture reagents were obtained from Sigma-Aldrich; plasticware was purchased from Sarstedt (Nümbrecht, Germany); Human colon Colo205 (chemo-sensitive, ATCC-CCL-222) and Colo320 (Pgp/MDR1-expressing, doxorubicin-resistant, ATCC-CCL-220.1) adenocarcinoma cell lines were purchased from LGC Promochem, Teddington, UK; MES-SA and MES-SA/Dx5 uterine sarcoma cell lines were obtained from ATCC, where they were characterized by DNA fingerprinting. The expression of the Pgp efflux pump of MES-SA/Dx5 was proven by Western blot analysis in our former report, and was also reported for the Colo320 cells. The MES-SA and MES-SA/Dx5 cells used in this study were previously engineered to express the fluorescent proteins mCherry and eGFP, respectively, by lentiviral transduction.
(§4) MES-SA cell lines were maintained in DMEM, supplemented with 10% fetal bovine serum, 5 mmol/L glutamine, and 50 units/mL penicillin and streptomycin. Cells were tested and resulted negative for mycoplasma contamination with the MycoAlert mycoplasma detection Kit (Lonza Group, Basel, Switzerland). One week prior to the cytotoxicity assays, Dx5 eGFP cells were selected in 500 nM doxorubicin for one passage to ensure the overexpression of P-glycoprotein.
(§5) Cytotoxicity assays: The tested compounds were dissolved in PBS buffer to prepare 5 mM stock solutions, which were diluted in complete culture medium.
(§6) In the case of the MES-SA and MES-SA/Dx5 cells, cell suspensions of the fluorescent cell lines were pre-mixed in a 1:1 ratio and seeded in 20 µL medium in a density of 2500 cells/well (1250 cells/well each) in a 384-well plate. After an overnight incubation, a serial dilution of the compounds was added to the plate in a final volume of 60 µL. The P-gp inhibitor tariquidar was added to the cells 15 min prior to the test compounds. After 144 h of incubation, plates were measured for the fluorescent intensity of mCherry (EX/EM: 585 nm/610 nm) and eGFP (EX/EM: 485 nm/510 nm). Cell seeding, aspiration of medium, and addition of drugs were performed by a Hamilton StarLet automated liquid handling robot.
(§7) Inhibition of the cell growth (expressed as IC50: inhibitory concentration that reduces by 50% the growth of the cells exposed to the tested compounds) was determined from the sigmoid curve where 100 − ((ODsample − ODmedium control)/(ODcell control − ODmedium control)) × 100 values were plotted against the logarithm of compound concentrations. Curves for the data obtained on Colo205 and Colo320 cells were fitted by GraphPad Prism software (2021, Graphpad Software, version 7.00, San Diego, CA, USA) using the sigmoidal dose–response model (comparing variable and fixed slopes). From the MES-SA cell data, the IC50 values were calculated by our custom program, written by J. Sessler in C#. The p values were calculated by Student’s t-test. The IC50 values were always obtained from at least three independent experiments.

Colo320 [1] = assay: In vitro cytotoxicity, Colo320 cells (MTT); format: cell-based, human; details: Homo sapiens, COLO 320; 72 h exposure
Source text: as §3
(§8) The colon adenocarcinoma cells were cultured in RPMI 1640 medium supplemented with 10% heat-inactivated fetal bovine serum, 2 mM L-glutamine, 1 mM sodium pyruvate, and 100 mM HEPES. The cells were incubated at 37 °C, in a 5% CO2, 95% air atmosphere.
as §5
(§9) In the case of the Colo205 and Colo320 cells, two-fold serial dilutions were prepared in 100 μL medium. The semi-adherent colon adenocarcinoma cells were treated with Trypsin-Versene (EDTA) solution. They were adjusted to a density of 1 × 10^4 cells in 100 μL of RPMI 1640 medium and were added to each well, with the exception of the medium control wells. The final volume of the wells containing compounds and cells was 200 μL. The plates containing Colo205 and Colo320 cells were incubated at 37 °C for 72 h; at the end of the incubation period, 20 μL of 3-(4,5-dimethyl-2-thiazolyl)-2,5-diphenyl-2H-tetrazolium bromide (MTT) solution (from a stock solution of 5 mg/mL) was added to each well. After incubation at 37 °C for 4 h, 100 μL of sodium dodecyl sulfate (SDS) solution (10% in 0.01 M HCI) was added to each well, and the plates were further incubated at 37 °C overnight. Cell growth was determined by measuring the optical density (OD) at 540/630 nm with a Multiskan EX plate reader (Thermo Labsystems, Cheshire, WA, USA).
as §7

Colo205 [2] = assay: In vitro cytotoxicity, Colo205 cells (MTT); format: cell-based, human; details: Homo sapiens, COLO 205; 72 h exposure
Source text: as §3, §8, §5, §9
Inhibition of the cell growth (expressed as IC50: inhibitory concentration that reduces by 50% the growth of the cells exposed to the tested compounds) was determined from the sigmoid curve where 100 − ((ODsample − ODmedium control)/(ODcell control − ODmedium control)) × 100 values were plotted against the logarithm of compound concentrations. Curves for the data obtained on Colo205 and Colo320 cells were fitted by GraphPad Prism software (2021, Graphpad Software, version 7.00, San Diego, CA, USA) using the sigmoidal dose–response model (comparing variable and fixed slopes). […]

MES-SA = assay: In vitro cytotoxicity, MES-SA cells (fluorescent protein readout); format: cell-based, human; details: Homo sapiens, MES-SA; 144 h exposure
Source text: as §3, §4, §5, §6, §7

Colo320 [3] = system: Colo320; parameters: method as in PMID 32500882; details: cited from earlier work
HSA site II = target: T3, HSA site II (Homo sapiens, UniProt P02768); parameters: method as in PMID 32500882; details: cited from earlier work
T3 construct: purchased Sigma-Aldrich (Darmstadt, Germany) A8763

[4] = parameters: method as in earlier work; details: pH 7.40, cited from earlier work
Colo205 [5] = system: Colo205; parameters: method as in PMID 32500882; details: 72 h exposure; cited from earlier work
HSA site I (Trp-214) = target: T4, HSA site I (Trp-214) (Homo sapiens, UniProt P02768); parameters: method as in PMID 32500882; details: cited from earlier work
T4 construct: purchased Sigma-Aldrich (Darmstadt, Germany) A8763
T4 sequence (P02768 25-609): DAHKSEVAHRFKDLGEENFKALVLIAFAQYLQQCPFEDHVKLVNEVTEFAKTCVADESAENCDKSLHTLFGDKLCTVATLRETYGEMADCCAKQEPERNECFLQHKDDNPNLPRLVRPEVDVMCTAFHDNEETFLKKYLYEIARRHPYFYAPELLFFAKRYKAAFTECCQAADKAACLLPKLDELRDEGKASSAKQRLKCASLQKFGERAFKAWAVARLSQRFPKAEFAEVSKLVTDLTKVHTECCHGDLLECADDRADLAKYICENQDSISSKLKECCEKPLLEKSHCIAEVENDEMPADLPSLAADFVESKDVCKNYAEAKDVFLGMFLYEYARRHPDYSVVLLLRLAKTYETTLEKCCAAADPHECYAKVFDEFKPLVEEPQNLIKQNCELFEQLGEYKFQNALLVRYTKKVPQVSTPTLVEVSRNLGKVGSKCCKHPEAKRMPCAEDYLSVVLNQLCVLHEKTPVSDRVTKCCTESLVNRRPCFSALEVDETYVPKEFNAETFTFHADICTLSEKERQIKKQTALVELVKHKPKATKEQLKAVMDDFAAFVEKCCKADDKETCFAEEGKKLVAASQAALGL

T3 sequence (P02768 25-609): as above

O=C1OC(c2ccc(O)c(S(=O)(=O)O)c2)(c2ccc(O)c(S(=O)(=O)O)c2)c2c(Br)c(Br)c(Br)c(Br)c21 [bromosulfophthalein, reference compound]
effect on OATP1B1 transport (OATP1B1): inhibited the transport
effect on OATP2B1 transport (OATP2B1): inhibited the transport

COc1cccc2c1C(=O)c1c(O)c3c(c(O)c1C2=O)C[C@@](O)(C(=O)CO)C[C@@H]3O[C@H]1C[C@H](N)[C@H](O)[C@H](C)O1 [doxorubicin, reference compound]
IC50 (MES-SA/Dx5): 4 ± 1 µM
IC50 (Colo320 [1]): 5.4 ± 0.9 µM
IC50 (Colo205 [2]): 0.71 ± 0.02 µM
IC50 (MES-SA): 0.03 ± 0.01 µM

Cc1ccc(C(C)C)cc1.O=C(O)[C@@H]1CCC[NH+]1Cc1cc(Cl)c2ccc[n+]3c2c1[O][Ru-]3[Cl].[Cl-] [RuCym-HQCl-L-Pro]
IC50 (Colo320 [3]; 72 h exposure): > 100 µM
Selectivity ratio IC50 (Colo205)/IC50 (Colo320) (Colo320 [3]; calculated from IC50 values taken from ref 12): ≤ 0.68
DG marker displacement constant logKDG' (HSA site II): 6.1
log D7.4 ([4]; 24 mM chloride): +0.09 ± 0.03
log D7.4 ([4]; 100 mM chloride): +0.46 ± 0.03
IC50 (Colo205 [5]): 68 ± 11 µM
quenching constant logKQ' (HSA site I (Trp-214)): 5.7
